A word on the Kd: it is the constant that tells how readily two partners part at equilibrium.

The target in the experiment is hCB2R (Homo sapiens (Human), UniProt P34972). The experiment is described as follows: TR-FRET hCB2R Binding Assay. The following applies: SNAP-tagged human CB2R HEK293-TR cell membranes, TR-FRET (HTRF) detection, nonspecific binding with 1 μM SR144528; read-out: Kd hCB2R.

Take `COc1cc(C(C)(C)CCCCCCN=[N+]=[N-])cc(OC)c1[C@H]1C=C(CNC(=O)CCCCCCOc2c(F)c(F)c3c(c2F)C2(OC3=O)c3ccc(N4CCC4)cc3[Si](C)(C)c3cc(N4CCC4)ccc32)[C@H]2C[C@@H]1C2(C)C` [Example 19, N-(((1S,4S,5S)-4-(4-(8-azido-2-methyloctan-2-yl)-2,6-dimethoxyphenyl)-6,6-dimethylbicyclo[3.1.1]hept-2-en-2-yl)methyl)-7-((3,7-di(azetidin-1-yl)-4′,5′,7′-trifluoro-5,5-dimethyl-3′-oxo-3′H,5H-spiro[dibenzo[b,e]siline-10,1′-isobenzofuran]-6′-yl)oxy)heptanamide]: the Kd is 2 nM.
